Read-outs that look alike come from different tables or passages of the source.
Tests used:
[1] = system: PANC-1; assay: Cytotoxicity test, WST-8 (cell counting kit-8), 48 hours; format: cell-based; settings: Homo sapiens, PANC-1, KRAS G12D Hetero, read-out: KR12 IC50
Experimental: (§1) Using colon cancer and pancreatic cancer cell lines, the cells were seeded in each well of a 96-well microplate, resulting in a cell density of 3000 to 5000 cells/well, and they were then cultured overnight. On the following day, the cells of each type were treated with KR12 recognizing a codon 12 mutation in concentrations of 1 nM, 10 nM, 30 nM, 100 nM, 300 nM, and 1 μM for 48 hours. Thereafter, a WST-8 reagent was added to each well, using cell counting kit-8, and the obtained mixture was then reacted for 2 hours. After that, the number of cells was counted at a wavelength of 450 nm according to a colorimetric analysis method using a microplate reader. The method of counting the number of cells comprises: 1) obtaining the mean value of the medium alone, 2) subtracting the mean value of the medium from each well, 3) obtaining the mean value of DMSO, 4) dividing the medium-subtracted value by the mean value of DMSO and then multiplying by 100, 5) obtaining the mean value of each treatment group and a standard deviation, and then preparing a graph. The calculation formula of IC50 is the following: IC50=10 (LOG (A/B)×(50−C)/(D−C)+LOG (B)), wherein A: a higher concentration of two concentrations sandwiching 50%, B: a lower concentration of two concentrations sandwiching 50%, C: inhibitory percentage at B, and D: inhibitory percentage at A.

[2] = system: K375; assay: as above; format: cell-based; settings: K375, KRAS G12D Hetero, read-out: KR12 IC50
Experimental: as §1

[3] = system: LS180 cells; assay: as above; format: cell-based, human; settings: Homo sapiens
Experimental: Using LS180 colon cell line, the cells were seeded in each well of a 96-well microplate, resulting in a cell density of 3000 to 5000 cells/well, and they were then cultured overnight. On the following day, KR12 recognizing a codon 12 mutation, WT recognizing wild-type KRAS, and C12-Dp having the same structure as that of KR12, to which an alkylating agent had not been added, were each added to the cultured cells in concentrations of 1 nM, 10 nM, 30 nM, 100 nM, 300 nM, and 1 μM, and were then treated for 48 hours. Thereafter, a WST-8 reagent was added to each well, using cell counting kit-8 (DOJINDO), and the obtained mixture was then reacted for 2 hours. After that, the number of cells was counted at a wavelength of 450 nm according to a colorimetric analysis method using a microplate reader. The method of counting the number of cells comprises: 1) obtaining the mean value of the medium alone, 2) subtracting the mean value of the medium from each well, 3) obtaining the mean value of DMSO, 4) dividing the medium-subtracted value by the mean value of DMSO and then multiplying by 100, 5) obtaining the mean value of each treatment group and a standard deviation, and then preparing a graph. The calculation formula of IC50 is the following: IC50=10 (LOG (A/B)×(50−C)/(D−C)+LOG (B)), wherein A: a higher concentration of two concentrations sandwiching 50%, B: a lower concentration of two concentrations sandwiching 50%, C: inhibitory percentage at B, and D: inhibitory percentage at A.
as §1, with “The calculation formula of IC50 is the following: IC50=10 (LOG (A/B)×(50−C)/(D−C)+LOG (B)), wherein A: a higher concentration of two concentrations sandwiching 50%, B: a lower concentration of two concentrations sandwiching 50%, C: inhibitory percentage at B, and D: inhibitory percentage at A.” left out

[4] = system: HT29 (KRAS-WT); assay: Suppression of tumor growth in nude mice, HT29 transplanted; format: in vivo; settings: nude mice with HT29 cells; 3.4 mmol KR12 via the caudal vein; FIG. 14A
Experimental: The below-mentioned 3 types of PBS solutions containing each type of cells were subcutaneously transplanted into the femurs of nude mice (i.e., HT29 into 7 mice, LS180 into 7 mice, and SW480 into 6 mice), and thereafter, at a time point in which a tumor adhered to the living body of each mouse and the tumor volume became approximately 100 mm^3, a drug was prepared with a composition of 3.4 mmol KR12 (1.36 mM KR12 dissolved in 2.5 μL of DMSO and 197.5 μL of PBS), or of a DMSO/PBS control (2.5 μL of DMSO and 197.5 μL of PBS). The prepared drug was subjected to sonication for 10 minutes, and 200 μL of the drug was administered to each mouse via the caudal vein thereof. The body weight and the tumor size were measured once three days, and the size of the tumor was measured by the method of 0.52×L×W×D(1/6×π×L×W×D).
HT29 (KRAS-WT): (transplanted in an amount of 2×10^6 cells/100 μl PBS into the subcutis of each mouse; a wild-type KRAS codon 12 cell line having no codon 12 mutations)

CC(=O)Nc1cn(C)c(C(=O)Nc2cc(C(=O)NCCC(=O)Nc3cn(C)c(C(=O)Nc4cn(C)c(C(=O)Nc5cc(C(=O)Nc6cn(C)c(C(=O)NCCCC(=O)Nc7cc(C(=O)Nc8cn(C)c(C(=O)NCCC(=O)Nc9cc(C(=O)Nc%10cc(C(=O)Nc%11ccc%12[nH]c(C(=O)N%13CC(CCl)c%14c%13cc(O)c%13ccccc%14%13)cc%12c%11)n(C)c%10)n(C)c9)n8)n(C)c7)n6)n(C)c5)n4)n3)n(C)c2)n1 (centres unmarked) [KR12]
IC50 [1]: 81 nM
IC50 [2]: 78 nM
IC50 ([3]; LS180, KRAS G12D Hetero, Table 1, read-out: KR12 IC50): 42 nM
IC50 ([3]; LS180 cells, WST-8, FIG. 8, read-out: IC50): 53 nM
tumor growth [4]: could not be suppressed

Source: patent publication US11185593B2, “Alkylating agent for alkylating target with driver oncogene mutation” (Chiba Prefecture, priority 2013, dated 2021)
